Data set [1] is described as follows: (§1) Cytotoxicity against mouse DLA cells after 48 hrs by LDH release assay. The class given is functional, cell-based.
The nature of data set [2]: Cytotoxicity against mouse DLA cells after 48 hrs by MTT assay. The class given is functional, cell-based. A general note: Formazan colour is commonly taken as a measure of viable cells.
Data set [3] is described as follows: Cytotoxicity against mouse DLA cells after 48 hrs by trypan blue exclusion assay. The class given is functional, cell-based.
Data set [4] can be described thus: Cytotoxicity against mouse EAC cells after 48 hrs by MTT assay. The format is functional, cell-based. The following applies: Ehrlich.
The nature of data set [5]: (§2) Cytotoxicity against mouse EAC cells after 48 hrs by LDH release assay. The class given is functional, cell-based. The conditions noted are these: Ehrlich.
Data set [6] in a line: Cytotoxicity against mouse EAC cells after 48 hrs by trypan blue exclusion assay. The class given is functional, cell-based. The conditions noted are these: Ehrlich.
For data set [7], the system named is Ehrlich. The experiment in a line: Antitumor activity against mouse EAC cells allografted in Swiss albino mouse assessed as condensed nucleus in tumor cells at 75 mg/kg, ip 3 doses administered every alternate days after three days of tumor growth. On the set-up: dose 75 mg/kg. The format is functional, organism-based.
In data set [8] the test system is Ehrlich. The experiment in a line: Antitumor activity against mouse EAC cells allografted in Swiss albino mouse assessed as DNA fragmentation in tumor cells at 75 mg/kg, ip 3 doses administered every alternate days after three days of tumor growth. The class given is functional, organism-based. Details: dose 75 mg/kg.
Data set [9] deals with Ehrlich. The experiment in a line: Antitumor activity against mouse EAC cells allografted in Swiss albino mouse assessed as formation of apoptotic bodies in tumor cells at 75 mg/kg, ip 3 doses administered every alternate days after three days of tumor growth by Giemsa staining. The format is functional, organism-based. On the set-up: dose 75 mg/kg.
The test system of data set [10] is Ehrlich. The experiment in a line: Antitumor activity against mouse EAC cells allografted in Swiss albino mouse assessed as membrane blebbing of tumor cells at 75 mg/kg, ip 3 doses administered every alternate days after three days of tumor growth by Giemsa staining. The class given is functional, organism-based. Details: dose 75 mg/kg.
For data set [11], the system named is Ehrlich. Briefly: Antitumor activity against mouse EAC cells allografted in Swiss albino mouse assessed as irregular tumor cell shape at 75 mg/kg, ip 3 doses administered every alternate days after three days of tumor growth by Giemsa staining. The format is functional, organism-based. Details: dose 75 mg/kg.
Data set [12] deals with Ehrlich. The experiment in a line: Antitumor activity against mouse EAC cells allografted in Swiss albino mouse assessed as tumor cell shrinkage at 75 mg/kg, ip 3 doses administered every alternate days after three days of tumor growth. The format is functional, organism-based. Details: dose 75 mg/kg.
For data set [13], the system named is Chorioallantoic membrane. Briefly: Ex vivo antiangiogenic activity in 2 days fertilized chicken embryo chorioallantoic membrane model assessed as inhibition of rVEGF165-induced angiogenesis at 10 uM after 72 hrs by photographic analysis relative to control. The format is functional, tissue-based. The following applies: Gallus gallus.
Data set [14] has as its system Chorioallantoic membrane. The experiment in a line: In vivo antiangiogenic activity in 12 days fertilized chicken embryo chorioallantoic membrane model assessed as inhibition of rVEGF165-induced angiogenesis at 10 uM by photographic analysis relative to control. The class given is functional, organism-based. The conditions noted are these: Gallus gallus.
Data set [15] concerns Mus musculus. Briefly: Antiangiogenic activity in mouse EAC cells allografted Swiss albino mouse model assessed as decrease in microvessel density in peritoneum at 75 mg/kg, ip 3 doses administered every alternate days after three days of tumor growth by hematoxylin and eosin staining method. The conditions noted are these: Ehrlich. The class given is functional, organism-based. Details: dose 75 mg/kg.

The subject of data set [16] is Mus musculus. The experiment in a line: Antiangiogenic activity in mouse EAC cells allografted Swiss albino mouse model assessed as decrease in peritoneal angiogenesis at 75 mg/kg, ip 3 doses administered every alternate days after three days of tumor growth. The class given is functional, organism-based. Details: dose 75 mg/kg. The conditions noted are these: Ehrlich.

For data set [17], the system named is Mus musculus. The experiment in a line: Toxicity in Swiss albino mouse assessed as urea level at 75 mg/kg, ip administered for 10 days (reference value: 42 +/- 2.78 mg/dl). The format is organism-based. Details: dose 75 mg/kg, route intraperitoneal. The conditions noted are these: in vivo, 240 h.
Data set [18] has as its system Mus musculus. Briefly: Toxicity in Swiss albino mouse assessed as creatinine level at 75 mg/kg, ip administered for 10 days (reference value: 0.59 +/- 1.05 mg/dl). On the set-up: dose 75 mg/kg, route intraperitoneal. The format is organism-based. The conditions noted are these: in vivo, 240 h.
Data set [19] has as its system Mus musculus. Briefly: Toxicity in Swiss albino mouse assessed as alkaline phosphatase level at 75 mg/kg, ip administered for 10 days (reference value: 128.55 +/- 2.55 IU/L). The class given is organism-based. Details: dose 75 mg/kg, route intraperitoneal. The following applies: in vivo, 240 h.
Data set [20] concerns Mus musculus. The experiment in a line: Toxicity in Swiss albino mouse assessed as change in liver morphology at 75 mg/kg, ip administered for 10 days relative to untreated control. The format is organism-based. On the set-up: dose 75 mg/kg, route intraperitoneal. The conditions noted are these: in vivo, 240 h.
The subject of data set [21] is Mus musculus. The experiment in a line: Toxicity in Swiss albino mouse assessed as change in spleen morphology at 75 mg/kg, ip administered for 10 days relative to untreated control. The format is organism-based. Details: dose 75 mg/kg, route intraperitoneal. The conditions noted are these: in vivo, 240 h.
The subject of data set [22] is DLA. The experiment in a line: Antitumor activity against mouse DLA cells allografted in Swiss albino mouse assessed as tumor regression at 75 mg/kg, ip administered alternate days total of 10 doses measured on day 35 relative to untreated control. Details: dose 75 mg/kg. The class given is functional, organism-based.
The test system of data set [23] is Ehrlich. Briefly: Antitumor activity against mouse EAC cells allografted in Swiss albino mouse assessed as inhibition of tumor growth at 75 mg/kg, ip 3 doses administered every alternate days after three days of tumor growth. On the set-up: dose 75 mg/kg. The format is functional, organism-based.
Data set [24] relates to Ehrlich. The experiment in a line: Antitumor activity against ip dosed mouse EAC cells allografted in Swiss albino mouse assessed as decrease in body weight administered 3 doses every alternate days after three days of tumor growth. The format is functional, organism-based.
Data set [25] has as its system Ehrlich. The experiment in a line: Antitumor activity against mouse EAC cells allografted in Swiss albino mouse assessed as decrease in ascites fluid secretion at 75 mg/kg, ip 3 doses administered every alternate days after three days of tumor growth. The format is functional, organism-based. On the set-up: dose 75 mg/kg.
For data set [26], the system named is DLA. The description is as §1. The format is functional, cell-based.
Data set [27] relates to Ehrlich. Described as §2. The class given is functional, cell-based.
Data set [28] in a line: Antitumor activity against mouse EAC cells allografted in Swiss albino mouse assessed as increase in life span at 75 mg/kg, ip 3 doses administered every alternate days after three days of tumor growth (reference value: 10 days). The format is functional, Ehrlich. The conditions noted are these: route intraperitoneal.
Data set [29] can be described thus: Antitumor activity against mouse EAC cells allografted in Swiss albino mouse model assessed as increase in body weight at 75 mg/kg, ip 3 doses administered every alternate days after three days of tumor growth measured after 10 days. The format is functional, Ehrlich. The conditions noted are these: route intraperitoneal.
Data set [30] can be described thus: Antitumor activity against mouse DLA cells allografted in Swiss albino mouse assessed as increase in lifespan at 75 mg/kg, ip administered alternate days total of 10 doses relative to untreated control. The format is functional. The conditions noted are these: route intraperitoneal.
Data set [31] has as its system DLA. The experiment in a line: Antitumor activity against mouse DLA cells allografted in Swiss albino mouse assessed as inhibition of tumor growth measuring tumor volume at 75 mg/kg, ip administered alternate days total of 10 doses relative to untreated control. The format is functional, organism-based. Details: dose 75 mg/kg.

Active and inactive are the calls of the source. No cut-off for these calls is given here.

Broadly, the IC50 is the concentration that gives 50% inhibition. Read a low IC50 as inhibition by little substance. In the case of `Cc1ccc(OCC(=O)NNC(=O)c2cc3ccccc3oc2=O)c(C(=O)c2cccc(Cl)c2)c1`, the IC50 in [1] stood at 67.4 µM; in data set [2], 65.5 µM; in data set [3], 68.6 µM; in [4], 64.9 µM; in [5], 65.4 µM; in [6], 67.3 µM.
`Cc1ccc(OCC(=O)NNC(=O)c2cc3ccccc3oc2=O)c(C(=O)c2ccc(F)cc2)c1`: the IC50 in data set [1] was determined as 45.7 µM; in data set [2], 43.4 µM; in data set [3], 46.1 µM; in data set [4] it was 39.7 µM; in [5], 40.8 µM; in data set [6] it was 43.4 µM.
Consider `Cc1ccc(OCC(=O)NNC(=O)c2cc3ccccc3oc2=O)c(C(=O)c2ccccc2Br)c1`, for which the outcome in data set [7], in [8], in data set [9], in [10], in data set [11] and in data set [12] was Active. In addition, the outcome in [15], in data set [16], in [22] and in [25] was Active. In addition, the inhibition result in data set [13] and in [14] was “Active” in each case. In addition, the Activity is 39 mg/dL in data set [17]; 0.5 mg/dL in data set [18]; 132.65 IU/L in [19]; “Non-toxic” in data set [20]; “Non-toxic” in [21]; “Dose-dependent effect” in data set [24]. The Activity result was “Dose-dependent effect” in data set [26], “Dose-dependent effect” in [27] and 10% in data set [29]. The TGI result in [23] and in data set [31] was “Active” throughout. Moreover, the IC50 in data set [1] amounted to 10.6 µM; in [2], 10 µM; in data set [3], 10 µM; in [4], 8 µM; in [5], 9.4 µM; in data set [6] it was 9 µM. Besides, in data set [28], the Time is 23 days. The “fold change (FC)” value in [30] is reported as 3.
As for `Cc1ccc(OCC(=O)NNC(=O)c2cc3ccccc3oc2=O)c(C(=O)c2ccc(Br)cc2)c1`, the IC50 in data set [1] was determined as 95.3 µM; in data set [2] it was 92.2 µM; in [3], 95.5 µM; in [4], 87.3 µM; in data set [5], 89 µM; in [6], 91.1 µM.
Turning to `Cc1ccc(OCC(=O)NNC(=O)c2cc3ccccc3oc2=O)c(C(=O)c2ccc(Cl)cc2)c1`, the IC50 in [1] was determined as 60.4 µM; in data set [2], 59.1 µM; in data set [3], 61.6 µM; in [4] it was 56.6 µM; in [5], 58 µM; in data set [6], 57.8 µM.
Take `Cc1ccc(OCC(=O)NNC(=O)c2cc3ccccc3oc2=O)c(C(=O)c2ccccc2)c1`: the IC50 was 87 µM in data set [1]; 86.4 µM in data set [2]; 89.1 µM in data set [3]; 78.4 µM in [4]; 81.1 µM in data set [5]; 86.5 µM in [6].
`O=c1[nH]cc(F)c(=O)[nH]1` [FLUOROURACIL]: the IC50 in [1] stood at 15.8 µM; in data set [2], 15.7 µM; in [3], 14.3 µM; in data set [4] it was 14.3 µM; in data set [5] it was 16.3 µM; in [6], 16.4 µM.
As to `Cc1ccc(OCC(=O)NNC(=O)c2cc3ccccc3oc2=O)c(C(=O)c2cccc(Br)c2)c1`, the half-inhibitory concentration (IC50) in [1] was 69.8 µM; in data set [2] it was 68.5 µM; in data set [3], 71.9 µM; in [4], 66.4 µM; in [5] it was 68.1 µM; in data set [6] it was 68.5 µM.
As for `Cc1ccc(C(=O)c2cc(C)ccc2OCC(=O)NNC(=O)c2cc3ccccc3oc2=O)cc1`, the IC50 in data set [1] amounted to 87.2 µM; in data set [2], 84.6 µM; in data set [3] it was 87.3 µM; in [4], 78.1 µM; in data set [5], 81.4 µM; in [6], 82.6 µM.
Take `Cc1ccc(OCC(=O)NNC(=O)c2cc3ccccc3oc2=O)c(C(=O)c2ccccc2Cl)c1`: the IC50 in data set [1] amounted to 54.4 µM; in [2], 53.8 µM; in data set [3], 54.8 µM; in data set [4] it was 45.2 µM; in [5] it was 47.6 µM; in data set [6] it was 48.4 µM.
Consider `COc1ccc(C(=O)c2cc(C)ccc2OCC(=O)NNC(=O)c2cc3ccccc3oc2=O)cc1`, for which the 50% inhibitory concentration (IC50) in [1] amounted to 43.4 µM; in [2], 42 µM; in data set [3], 43.5 µM; in [4], 38.4 µM; in data set [5], 41.2 µM; in [6] it was 41.2 µM.

(Values after ChEMBL document CHEMBL3124755, “Synthesis and tumor inhibitory activity of novel coumarin analogs targeting angiogenesis and apoptosis” (Eur J Med Chem, 2014).)
